Drawing on patent US12060347B2 (BRISTOL-MYERS SQUIBB COMPANY, priority 2016, dated 2024), this text covers IC50 for 29 molecules.

This experiment addresses T1, human PAR4 (Homo sapiens, UniProt Q96RI0).
T1 construct: expressed in transfected cells; host or cells: HEK293 PAR4 Clone 1.2A (BMS Arctic ID 383940)
T1 sequence (Q96RI0 18-385): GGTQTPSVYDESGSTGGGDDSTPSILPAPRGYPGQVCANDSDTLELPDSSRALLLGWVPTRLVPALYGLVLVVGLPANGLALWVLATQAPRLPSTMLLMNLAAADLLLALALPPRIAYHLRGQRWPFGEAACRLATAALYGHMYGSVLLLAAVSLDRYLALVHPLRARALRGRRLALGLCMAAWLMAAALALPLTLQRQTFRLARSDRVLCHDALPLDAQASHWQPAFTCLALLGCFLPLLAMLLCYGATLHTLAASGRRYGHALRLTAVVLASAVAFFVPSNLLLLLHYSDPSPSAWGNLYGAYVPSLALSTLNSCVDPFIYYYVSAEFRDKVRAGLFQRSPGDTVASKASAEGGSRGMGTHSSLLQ
The experiment can be described thus: PAR4 FLIPR assay: antagonism of agonist-peptide-induced calcium mobilization in PAR4-expressing HEK293 cells. Type of experiment: cell-based. The note with it: H-Ala-Phe(4-F)-[…]NH2-induced intracellular calcium mobilization, 11-point curves. In general terms: Calcium assays in cells follow changes in intracellular calcium, usually with a dye or a luminescent sensor.

One may read the IC50 as the point on the concentration scale where inhibition reaches its midpoint.

Take `COCc1cnc2c(-c3nc4c(C)c(C)c(OCC(C)O)cc4s3)cc(C)cc2n1` (racemic) [Example 322, 1-((2-(2-(methoxymethyl)-7-methylquinoxalin-5-yl)-4,5-dimethylbenzo[d]thiazol-6-yl)oxy)propan-2-ol]: the IC50 was 5.1 nM.
For the molecule `COc1cccc2cc(-c3cc(C)cc4nc(OC(F)F)cnc34)oc12` [Example 41, 2-(difluoromethoxy)-5-(7-methoxybenzofuran-2-yl)-7-methylquinoxaline], the IC50 turned out to be 400 nM.
As for `COc1cnc2c(-c3nc4c(Cl)c(F)c(OCCOC(=O)Nc5cnc6[nH]ccc6c5)cc4s3)cc(C)cc2n1` [Example 359, 2-((4-chloro-5-fluoro-2-(2-methoxy-7-methylquinoxalin-5-yl)benzo[d]thiazol-6-yl)oxy)ethyl 1H-pyrrolo[2,3-b]pyridin-5-ylcarbamate], the figure is 170 nM.
Consider `COc1cnc2c(-c3nc4c(Cl)cc(OCCNS(=O)(=O)c5ccc(F)cc5)cc4s3)cc(C)cc2n1` [Example 28, N-(2-((4-chloro-2-(2-methoxy-7-methylquinoxalin-5-yl)benzo[d]thiazol-6-yl)oxy)ethyl)-4-fluorobenzenesulfonamide], for which the IC50 came to 3 nM.
Consider `Cc1cc(-c2cc3cc(OCc4ccccc4)ccc3o2)c2ncc(OC(F)F)nc2c1` [Example 44, 5-(5-(benzyloxy)benzofuran-2-yl)-2-(difluoromethoxy)-7-methylquinoxaline], for which the IC50 came out at 220 nM.
With `COCc1cnc2c(-c3nc4c(CN(C)C)cc(OC)cc4s3)cc(C)cc2n1` [Example 159, 1-(6-methoxy-2-(2-(methoxymethyl)-7-methylquinoxalin-5-yl)benzo[d]thiazol-4-yl)-N,N-dimethylmethanamine] the figure was 25 nM.
As to `COCCNC(=O)c1cc(-c2nc3c(C)cc(OCCNS(=O)(=O)c4ccc(F)cc4)cc3s2)c2ncc(COC)nc2c1` [Example 228, 8-(6-(2-(4-fluorophenylsulfonamido)ethoxy)-4-methylbenzo[d]thiazol-2-yl)-N-(2-methoxyethyl)-3-(methoxymethyl)quinoxaline-6-carboxamide], the IC50 worked out at 890 nM.
As for `COc1cnc2c(-c3nc4c(s3)CC(OC)CC4)cc(C)cc2n1` (centres unmarked) [Example 140, 6-methoxy-2-(2-methoxy-7-methylquinoxalin-5-yl)-4,5,6,7-tetrahydrobenzo[d]thiazole], the figure is 21 nM; as for `Cc1cc(-c2nc3c(F)cccc3s2)c2ncc(OC(F)F)nc2c1` [Example 53, 2-(2-(difluoromethoxy)-7-methylquinoxalin-5-yl)-4-fluorobenzo[d]thiazole], 9.8 nM.
Turning to `COc1cnc2c(-c3nc4cc(F)c(OC[C@H](C)OC(=O)Nc5cccnc5)cc4s3)cc(C)cc2n1` [Example 346, (S)-1-((5-fluoro-2-(2-methoxy-7-methylquinoxalin-5-yl)benzo[d]thiazol-6-yl)oxy)propan-2-ylpyridin-3-ylcarbamate], the IC50 came out at 3.7 nM.
Consider `Cc1cc(-c2nc3c(s2)CN(C(=O)OC(C)(C)C)CC3)c2ncc(OC(F)F)nc2c1` [Example 11, tert-butyl 2-(2-(difluoromethoxy)-7-methylquinoxalin-5-yl)-6,7-dihydrothiazolo[5,4-c]pyridine-5(4H)-carboxylate], for which the IC50 worked out at 1700 nM.
With `COc1cnc2c(-c3nc4c(C(O)C5(C(F)(F)F)CCC5)cc(OC)cc4s3)cc(Cl)cc2c1` (centres unmarked) [Example 656, (2-(6-chloro-3-methoxyquinolin-8-yl)-6-methoxybenzo[d]thiazol-4-yl)(1-(trifluoromethyl)cyclobutyl)methanol], the IC50 is 2.4 nM.
Consider `COc1cnc2c(-c3nc4cc(F)c(O[C@@H](C)[C@@H](C)OC(=O)Nc5ccc(C(=O)NC[C@H](C)O)nc5)nc4s3)cc(C)cc2n1` [Example 750, (2R,3S)-3-((6-fluoro-2-(2-methoxy-7-methylquinoxalin-5-yl)thiazolo[5,4-b]pyridin-5-yl)oxy)butan-2-yl (6-(((S)-2-hydroxypropyl)carbamoyl)pyridin-3-yl)carbamate], for which the IC50 was determined as 1.1 nM.
As for `COc1cnc2c(-c3nc4c(Cl)c(F)c(OCCOC(=O)Nc5ccc(F)nc5)cc4s3)cc(C)cc2n1` [Example 304, 2-((4-chloro-5-fluoro-2-(2-methoxy-7-methylquinoxalin-5-yl)benzo[d]thiazol-6-yl)oxy)ethyl (6-fluoropyridin-3-yl)carbamate], the figure is 2.3 nM; as for `COc1cnc2c(-c3nc4c(Cl)c(F)c(OCCOC(=O)NCc5ccccn5)cc4s3)cc(C)cc2n1` [Example 396, 2-((4-chloro-5-fluoro-2-(2-methoxy-7-methylquinoxalin-5-yl)benzo[d]thiazol-6-yl)oxy)ethyl (pyridin-2-ylmethyl)carbamate], 4.6 nM; as for `COc1cnc2c(-c3nc4cc(F)c(O[C@@H](C)[C@@H](C)OC(=O)Nc5ccc(C)nc5)cc4s3)cc(Cl)cc2n1` [Example 822, (2R,3S)-3-((2-(7-chloro-2-methoxyquinoxalin-5-yl)-5-fluorobenzo[d]thiazol-6-yl)oxy)butan-2-yl (6-methylpyridin-3-yl)carbamate], 1.6 nM.
In the case of `COc1cnc2c(-c3nc4cc(F)c(OC[C@@H](C)OC(=O)Nc5ccc(C(=O)N6CC[C@@H](CO)C6)nc5)cc4s3)cc(C)cc2n1` [Example 476, (R)-1-((5-fluoro-2-(2-methoxy-7-methylquinoxalin-5-yl)benzo[d]thiazol-6-yl)oxy)propan-2-yl (6-((R)-3-(hydroxymethyl)pyrrolidine-1-carbonyl)pyridin-3-yl)carbamate], the IC50 came to 10 nM.
With `COCc1cnc2c(-c3nc4c(C(O)c5ccccc5)cc(OC)cc4s3)cc(C)cc2n1` (centres unmarked) [Example 161, (6-methoxy-2-(2-(methoxymethyl)-7-methylquinoxalin-5-yl)benzo[d]thiazol-4-yl) (phenyl)methanol] the figure was 0.7 nM.
In the case of `COc1cnc2c(-c3nc4cc(F)c(OC[C@@H](C)OC(=O)Nc5ccc6c(ccn6C)c5)cc4s3)cc(C)cc2n1` [Example 356, (R)-1-((5-fluoro-2-(2-methoxy-7-methylquinoxalin-5-yl)benzo[d]thiazol-6-yl)oxy)propan-2-yl (1-methyl-1H-indol-5-yl)carbamate], the IC50 is 2.1 nM.
As for `COc1cnc2c(-c3nc4cc(F)c(OC[C@@H](C)OC(=O)Nc5cnc(C(N)=O)nc5)nc4s3)cc(C)cc2n1` [Example 749, (R)-1-((6-fluoro-2-(2-methoxy-7-methylquinoxalin-5-yl)thiazolo[5,4-b]pyridin-5-yl)oxy) propan-2-yl (2-carbamoylpyrimidin-5-yl)carbamate], the figure is 4.3 nM; as for `COCc1cnc2c(-c3nc4ccc(OC)cc4s3)cc(Cl)cc2n1` [Example 201, 2-(7-chloro-2-(methoxymethyl)quinoxalin-5-yl)-6-methoxybenzo[d]thiazole], 1.3 nM; as for `CCOc1cnc2c(-c3nc4cc(F)c(O[C@@H](C)[C@@H](C)OC(=O)Nc5cnc(COP(=O)(O)O)nc5)cc4s3)cc(C)cc2n1` [Example 532, (2R,3S)-3-((2-(2-ethoxy-7-methylquinoxalin-5-yl)-5-fluorobenzo[d]thiazol-6-yl)oxy)butan-2-yl (2-((phosphonooxy)methyl)pyrimidin-5-yl)carbamate], 1.7 nM.
Take `Cc1cc(-c2cc3ccccc3s2)c2ncc(OC(F)F)nc2c1` [Example 40, 5-(benzo[b]thiophen-2-yl)-2-(difluoromethoxy)-7-methylquinoxaline]: the IC50 turned out to be 36 nM.
As for `COCc1cnc2c(-c3nc4c(C)c(C)c(OCCOC(=O)OC)cc4s3)cc(C)cc2n1` [Example 320, 2-((2-(2-(methoxymethyl)-7-methylquinoxalin-5-yl)-4,5-dimethylbenzo[d]thiazol-6-yl)oxy)ethyl methyl carbonate], the figure is 3.4 nM.
Take `COc1cnc2c(-c3nc4cc(F)c(OC[C@@H](C)OC(=O)Nc5cnc(OC)nc5)cc4s3)cc(C)cc2n1` [Example 408, (R)-1-((5-fluoro-2-(2-methoxy-7-methylquinoxalin-5-yl)benzo[d]thiazol-6-yl)oxy)propan-2-yl (2-methoxypyrimidin-5-yl)carbamate]: the IC50 came out at 3.2 nM.
As for `COc1cnc2c(-c3cc4cc(OCCOC(=O)Nc5ccnc(C)c5)c(F)cc4o3)cc(CO)cc2n1` [Example 126, 2-((6-fluoro-2-(7-(hydroxymethyl)-2-methoxyquinoxalin-5-yl)benzofuran-5-yl)oxy)ethyl (2-methylpyridin-4-yl)carbamate], the figure is 1.2 nM; as for `C=Cc1cc(-c2nc3c(C)cc(OCCNS(=O)(=O)c4ccc(F)cc4)cc3s2)c2ncc(OC)nc2c1` [Example 229, 4-fluoro-N-(2-((2-(2-methoxy-7-vinylquinoxalin-5-yl)-4-methylbenzo[d]thiazol-6-yl)oxy)ethyl)benzenesulfonamide], 3.9 nM.
As for `COCc1cnc2c(-c3nc4ccc(OC)cc4s3)cc(C)cc2n1` [Example 253, 6-methoxy-2-(2-(methoxymethyl)-7-methylquinoxalin-5yl)benzo[d]thiazole], the IC50 was 0.6 nM.
Regarding `COc1cnc2c(-c3nc4c(Cl)c(F)c(OC[C@@H](C)OC(=O)Nc5cnc(C#N)nc5)cc4s3)cc(C)cc2n1` [Example 400, (R)-1-((4-chloro-5-fluoro-2-(2-methoxy-7-methylquinoxalin-5-yl)benzo[d]thiazol-6-yl)oxy)propan-2-yl (2-cyanopyrimidin-5-yl)carbamate], the IC50 came out at 2 nM.
